US20230265438A1, “NUCLEIC ACIDS FOR INHIBITING EXPRESSION OF CNNM4 IN A CELL” (ASOCIACIÓN CENTRO DE INVESTIGACIÓN COOPERATIVA EN …, priority 2020, published 2023)
{VP} = (E)-vinylphosphonate; m = 2'-O-methyl; f = 2'-fluoro

Tests used:
[1] = tested on: CNNM4 mRNA; assay: CNNM4 mRNA in liver of wild-type mice after single subcutaneous dose (Examples 12-14); type: in vivo, mouse; settings: wild-type C57BL/6 mice
Method: (§1) Five- to seven-week old male C57BL/6 mice were treated with a single dose of 1 or 5 mg siRNA conjugate per kg body weight by subcutaneous injection. Control groups received a subcutaneous injection with the vehicle PBS. Two weeks after the treatment, liver samples were collected from all mice and snap frozen. RNA was extracted from liver samples and CNNM4 and Actin mRNA levels were determined by Taqman qRT-PCR. Values obtained for CNNM4 mRNA were normalized to values generated for the housekeeping gene Actin and related to mean of untreated sample (ut) set at 1-fold target gene expression. Each bar represents mean value from 6 animals +/-SD.
Five- to seven-week old male C57BL/6 mice were treated with a single dose of 0.3 or 1 mg siRNA conjugate per kg body weight by subcutaneous injection. Control groups received a subcutaneous injection with the vehicle PBS. Two weeks after the treatment, liver samples were collected from all mice and snap frozen. RNA was extracted from liver samples and CNNM4 and Actin mRNA levels were determined by Taqman qRT-PCR. Values obtained for CNNM4 mRNA were normalized to values generated for the housekeeping gene Actin and related to mean of untreated sample (ut) set at 1-fold target gene expression. Each bar represents mean value from 6 animals +/-SD.
as §1, with “1” for “1 or 5”, “Five” for “Two”, “PBS treated cohort (PBS)” for “untreated sample (ut)”

[2] = tested on: CNNM4 mRNA; assay: CNNM4 mRNA in liver of DIO-NASH mice (Example 24); type: in vivo, mouse; settings: 1 mg/kg or 5 mg/kg s.c. at 4, 8 and 12 weeks, liver 4 weeks after last treatment, FIG. 30
Method: 5-week old C57BL/6 male mice were maintained on a DIO-NASH diet for about 32 weeks and randomized based on pre-liver biopsy fibrosis and steatosis score. Only animals with fibrosis score of ≥ 1 and steatosis score of ≥ 2 were included in the study. Animals were then maintained on DIO-NASH diet for another 16 weeks. At the 4 week, 8 week, and 12 week time points after the pre liver biopsy mice were treated with 1 mg/kg or 5 mg/kg EU422, respectively or with the vehicle PBS by subcutaneous injection. 4 weeks after the last treatment, liver samples were collected from all mice and snap frozen. RNA was extracted from liver samples and CNNM4 and HPRT mRNA levels were determined by Taqman qRT-PCR. Values obtained for CNNM4 mRNA were normalized to values generated for the house keeping gene HPRT and related to mean of untreated sample (ut) set at 1-fold target gene expression. Each bar represents mean value from 15 animals +/-SD.

EU422: CNNM4 siRNA conjugate, duplex EU422A/EU422B; consists of SEQ ID NO: 461 and SEQ ID NO: 462 (chain 1 UGACAAAAGACACAAGAGU; chain 2 ACUCUUGUGUCUUUUGUCA; chain 1: sugars from the 5' end mfmfmfmfmfmfmfmfmfm, 5' {VP}, backbone not given here; chain 2: sugars from the 5' end m6 f3 m10, backbone not given here; undefined (ps2) end linkages, 5' conjugate ST23/ST41 on second strand, further chemistry not fully specified)
CNNM4 mRNA levels in the liver ([1]; five weeks after single dose of 1 mg/kg s.c., FIG. 20): reduction of CNNM4 mRNA levels
CNNM4 mRNA levels in the liver ([1]; two weeks after single dose of 0.3 or 1 mg/kg s.c., FIG. 19): reduction of CNNM4 mRNA levels
CNNM4 mRNA levels in the liver [2]: dose dependent reduction of CNNM4 mRNA levels
